Like-named read-outs stand apart in the source and are kept apart here.
Tested on: PMA-differentiated THP-1 cells
Assay: hTHP-1 assay containing 10% fetal bovine serum (IL-1β production, Tables B5 and B6)
Format: cell-based, human
Experimental: The following protocol is suitable for testing the activity of the compounds disclosed herein. Procedure 1: IL-1β Production in PMA-Differentiated THP-1 Cells Stimulated with Gramicidin.
THP-1 cells were purchased from the American Type Culture Collection and sub-cultured according to instructions from the supplier. Cells were cultured in complete RPMI 1640 (containing 10% heat inactivated FBS, penicillin (100 units/ml) and streptomycin (100 μg/ml)), and maintained in log phase prior to experimental setup. Prior to the experiment, compounds were dissolved in dimethyl sulfoxide (DMSO) to generate a 30 mM stock. The compound stock was first pre-diluted in DMSO to 3, 0.34, 0.042 and 0.0083 mM intermediate concentrations and subsequently spotted using Echo550 liquid handler into an empty 384-well assay plate to achieve desired final concentration (e.g. 100, 33, 11, 3.7, 1.2, 0.41, 0.14, 0.046, 0.015, 0.0051, 0.0017 μM). DMSO was backfilled in the plate to achieve a final DMSO assay concentration of 0.37%. The plate was then sealed and stored at room temperature until required.
THP-1 cells were treated with PMA (Phorbol 12-myristate 13-acetate) (20 ng/ml) for 16-18 hours. On the day of the experiment the media was removed and adherent cells were detached with trypsin for 5 minutes. […] The cells were plated in the 384-well assay plate containing the spotted compounds at a density of 50,000 cells/well (final assay volume 50 μl). Cells were incubated with compounds for 1 hour and then stimulated with gramicidin (5 μM) (Enzo) for 2 hours. Plates were then centrifuged at 340 g for 5 min. Cell free supernatant (40 μL) was collected using a 96—CHannel PlateMaster (Gilson) and the production of IL-1β was evaluated by HTRF (cisbio). The plates were incubated for 18 h at 4° C. and read using the preset HTRF program (donor emission at 620 nm, acceptor emission at 668 nm) of the SpectraMax i3x spectrophotometer (Molecular Devices, software SoftMax 6). A vehicle only control and a dose titration of CRID3 (100-0.0017 μM) were run concurrently with each experiment.
Procedure 2: IL-1β Production in PMA-Differentiated THP-1 Cells Stimulated with Gramicidin.
THP-1 cells were purchased from the American Type Culture Collection and sub-cultured according to instructions from the supplier. Prior to experiments, cells were cultured in complete RPMI 1640 (containing 10% heat inactivated FBS, penicillin (100 units/ml) and streptomycin (100 μg/ml)), and maintained in log phase prior to experimental setup. Prior to the experiment THP-1 were treated with PMA (Phorbol 12-myristate 13-acetate) (20 ng/ml) for 16-18 hours. Compounds were dissolved in dimethyl sulfoxide (DMSO) to generate a 30mM stock. On the day of the experiment the media was removed and adherent cells were detached with trypsin for 5 minutes. […] The cells were plated in a 384-well plate at a density of 50,000 cells/well (final assay volume […]). Compounds were first dissolved in assay medium to obtain a 5× top concentration of 500 μM. 10 step dilutions (1:3) were then undertaken in assay medium containing 1.67% DMSO. 5× compound solutions were added to the culture medium to achieve desired final concentration (e.g. 100, 33, 11, 3.7, 1.2, 0.41, 0.14, 0.046, 0.015, 0.0051, 0.0017 μM). Final DMSO concentration was at 0.37%. Cells were incubated with compounds for 1 hour and then stimulated with gramicidin (5 μM) (Enzo) for 2 hours. Plates were then centrifuged at 340 g for 5 min. Cell free supernatant (40 μL) was collected using a 96—CHannel PlateMaster (Gilson) and the production of IL-1β was evaluated by HTRF (cisbio). A vehicle only control and a dose titration of CRID3 (100-0.0017 μM) were run concurrently with each experiment.
Tables B1, B2, B3, and B4 show the biological activity of compounds in hTHP-1 assay containing 2% fetal bovine serum. […] Key: <0.008 μM=“++++++”; ≥0.008 and <0.04 μM=“+++++”; >0.04 and <0.2 μM=“++++”; ≥0.2 and <1 μM=“+++”; ≥1 and <5 μM=“++”; ≥5 and <30 μM=“+”. […]

[1] = read-out: hTHP-1 IC50 in 10% FBS, hTHP-1 assay containing 10% fetal bovine serum, Table B6

Q: `Cc1nc2c(c(NC(=O)N=S(N)(=O)c3scc(C(C)(C)O)c3F)c1-c1ccccc1)CCC2` (single isomer, unassigned) [Compound 1110a, (S) or (R)-3-fluoro-4-(2-hydroxypropan-2-yl)-N′-((2-methyl-3-phenyl-6,7-dihydro-5H-cyclopenta[b]pyridin-4-yl)carbamoyl)thiophene-2-sulfonimidamide] was tested. Which IC50 (read-out: hTHP-1 IC50 in 10% FBS, hTHP-1 assay containing 10% fetal bovine serum, Table B5, listed as 844) did it give?
A: 0.2 to 1 µM

Q: How did the IC50 (read-out: hTHP-1 IC50 in 10% FBS, hTHP-1 assay containing 10% fetal bovine serum, Table B5, listed as 845) turn out when `Cc1nc2c(c(NC(=O)N=S(N)(=O)c3scc(C(C)(C)O)c3F)c1-c1ccccc1)CCC2` (single isomer, unassigned) [Compound 1110b, (R) or (S)-3-fluoro-4-(2-hydroxypropan-2-yl)-N′-((2-methyl-3-phenyl-6,7-dihydro-5H-cyclopenta[b]pyridin-4-yl)carbamoyl)thiophene-2-sulfonimidamide] was run?
A: < 0.008 µM

Q: Which IC50 (read-out: hTHP-1 IC50 in 10% FBS, hTHP-1 assay containing 10% fetal bovine serum, Table B5, listed as 836) does the source give for `CCn1cc(F)c(S(N)(=O)=NC(=O)Nc2c3c(nc(C(F)(F)F)c2-c2ccc(F)c(F)c2)CCC3)n1` (single isomer, unassigned) [Compound 1113a, (S) or (R)-N′-((3-(3,4-difluorophenyl)-2-(trifluoromethyl)-6,7-dihydro-5H-cyclopenta[b]pyridin-4-yl)carbamoyl)-1-ethyl-4-fluoro-1H-pyrazole-3-sulfonimidamide] here?
A: 0.2 to 1 µM

Q: `CCn1cc(F)c(S(N)(=O)=NC(=O)Nc2c3c(nc(C(F)(F)F)c2-c2ccc(F)c(F)c2)CCC3)n1` (single isomer, unassigned) [Compound 1113b, (R) or (S)-N′-((3-(3,4-difluorophenyl)-2-(trifluoromethyl)-6,7-dihydro-5H-cyclopenta[b]pyridin-4-yl)carbamoyl)-1-ethyl-4-fluoro-1H-pyrazole-3-sulfonimidamide] was tested. Which IC50 (read-out: hTHP-1 IC50 in 10% FBS, hTHP-1 assay containing 10% fetal bovine serum, Table B5, listed as 837) did it give?
A: 0.008 to 0.04 µM

Q: For `CC(F)(F)n1cc(F)c(S(N)(=O)=NC(=O)Nc2c3c(nc4c2CCC4)CCC3)n1` (single isomer, unassigned) [Compound 1115a, (R) or (S)-1-(1,1-difluoroethyl)-4-fluoro-N′-((l,2,3,5,6,7-hexa-hydrodicyclopenta[b,e]pyridin-8-yl)carbamoyl)-1H-pyrazole-3-sulfonimidamide], which IC50 (read-out: hTHP-1 IC50 in 10% FBS, hTHP-1 assay containing 10% fetal bovine serum, Table B5, listed as 846) is on record?
A: 0.2 to 1 µM

Q: How did the IC50 (read-out: hTHP-1 IC50 in 10% FBS, hTHP-1 assay containing 10% fetal bovine serum, Table B5, listed as 847) turn out when `CC(F)(F)n1cc(F)c(S(N)(=O)=NC(=O)Nc2c3c(nc4c2CCC4)CCC3)n1` (single isomer, unassigned) [Compound 1115b, (S) or (R)-1-(1,1-difluoroethyl)-4-fluoro-N′-((1,2,3,5,6,7-hexa-hydrodicyclopenta[b,e]pyridin-8-yl)carbamoyl)-1H-pyrazole-3-sulfonimidamide] was run?
A: 5 to 30 µM

Q: With `CCn1cc(F)c(S(N)(=O)=NC(=O)Nc2c3c(nc(C)c2C(F)(F)F)CCC3)n1` (single isomer, unassigned) [Compound 1116a, (R) or (S)-1-ethyl-4-fluoro-N′-((2-methyl-3-(trifluoromethyl)-6,7-dihydro-5H-cyclopenta[b]pyridin-4-yl)carbamoyl)-1H-pyrazole-3-sulfonimidamide] as the molecule, how does the IC50 (read-out: hTHP-1 IC50 in 10% FBS, hTHP-1 assay containing 10% fetal bovine serum, Table B5, listed as 848) read?
A: 0.008 to 0.04 µM

Q: For `CCn1cc(F)c(S(N)(=O)=NC(=O)Nc2c3c(nc(C)c2C(F)(F)F)CCC3)n1` (single isomer, unassigned) [Compound 1116b, (S) or (R)-1-ethyl-4-fluoro-N′-((2-methyl-3-(trifluoromethyl)-6,7-dihydro-5H-cyclopenta[b]pyridin-4-yl)carbamoyl)-1H-pyrazole-3-sulfonimidamide], which IC50 (read-out: hTHP-1 IC50 in 10% FBS, hTHP-1 assay containing 10% fetal bovine serum, Table B5, listed as 849) is on record?
A: 1 to 5 µM

Q: With `C[C@@H]1CCc2c1nc1c(c2NC(=O)N=S(N)(=O)c2nn(C(C)(F)F)cc2F)CCC1` (single isomer, unassigned) [Compound 1117a, (R) or (S)-1-(1,1-difluoroethyl)-4-fluoro-N′-(((R)-3-methyl-1,2,3,5,6,7-hexahydrodicyclopenta[b,e]pyridin-8-yl)carbamoyl)-1H-pyrazole-3-sulfonimidamide] as the molecule, how does the IC50 (read-out: hTHP-1 IC50 in 10% FBS, hTHP-1 assay containing 10% fetal bovine serum, Table B5, listed as 850) read?
A: 0.008 to 0.04 µM

Q: With `C[C@@H]1CCc2c1nc1c(c2NC(=O)N=S(N)(=O)c2nn(C(C)(F)F)cc2F)CCC1` (single isomer, unassigned) [Compound 1117b, (S) or (R)-1-(1,1-difluoroethyl)-4-fluoro-N′-(((R)-3-methyl-1,2,3,5,6,7-hexahydrodicyclopenta[b,e]pyridin-8-yl)carbamoyl)-1H-pyrazole-3-sulfonimidamide] as the molecule, how does the IC50 (read-out: hTHP-1 IC50 in 10% FBS, hTHP-1 assay containing 10% fetal bovine serum, Table B5, listed as 851) read?
A: 0.2 to 1 µM

Q: Which IC50 [1] does the source give for `NS(=O)(=NC(=O)Nc1c2c(nc3c1CCC3)CCC2)c1nn(C2CC2)cc1F` (single isomer, unassigned) [Example 863, (R) or (S)-1-cyclopropyl-4-fluoro-N′-((1,2,3,5,6,7-hexahydrodicyclopenta[b,e]pyridin-8-yl)carbamoyl)-1H-pyrazole-3-sulfonimidamide] here?
A: 0.04 to 0.2 µM

Q: For `NS(=O)(=NC(=O)Nc1c2c(nc3c1CCC3)CCC2)c1nn(C2CC2)cc1F` (single isomer, unassigned) [Example 864, (S) or (R)-1-cyclopropyl-4-fluoro-N′-((1,2,3,5,6,7-hexahydrodicyclopenta[b,e]pyridin-8-yl)carbamoyl)-1H-pyrazole-3-sulfonimidamide], which IC50 [1] is on record?
A: 0.2 to 1 µM

Q: `NS(=O)(=NC(=O)Nc1c2c(nc3c1CCC31CC1)CCC2)c1nn(C2CC2)cc1F` (single isomer, unassigned) [Example 865, (R) or (S)-1-cyclopropyl-4-fluoro-N′-((1′,5′,6′,7′-tetrahydro-2′H-spiro[cyclopropan-1,3′-dicyclopenta[b,e]pyridin]-8′-yl)carbamoyl)-1H-pyrazole-3-sulfonimidamide] was tested. Which IC50 (Homo sapiens, THP-1, read-out: hTHP-1 IC50 in 10% FBS, hTHP-1 assay containing 10% fetal bovine serum, Table B6) did it give?
A: 0.04 to 0.2 µM

Q: For `NS(=O)(=NC(=O)Nc1c2c(nc3c1CCC31CC1)CCC2)c1nn(C2CC2)cc1F` (single isomer, unassigned) [Example 866, (S) or (R)-1-cyclopropyl-4-fluoro-N′-((1′,5′,6′,7′-tetrahydro-2′H-spiro[cyclopropan-1,3′-dicyclopenta[b,e]pyridin]-8′-yl)carbamoyl)-1H-pyrazole-3-sulfonimidamide], which IC50 [1] is on record?
A: 0.04 to 0.2 µM

Q: `C[C@@H]1CCc2c1nc1c(c2NC(=O)N=S(N)(=O)c2nn(C3CC3)cc2F)CCC1` (single isomer, unassigned) [Example 867, (R) or (S)-1-cyclopropyl-4-fluoro-N′-(((R)-3-methyl-1,2,3,5,6,7-hexahydrodicyclopenta[b,e]pyridin-8-yl)carbamoyl)-1H-pyrazole-3-sulfonimidamide] was tested. Which IC50 [1] did it give?
A: < 0.008 µM
